Here are results for 62 compounds from article PMC9995496, “A screen for MeCP2-TBL1 interaction inhibitors using a luminescence-based assay” (Scientific Reports, 2023).

The target in the assay is T1, MeCP2-TBL1 interaction (MeCP2-SmBiT / TBL1-LgBiT) (Mus musculus, UniProt Q9QXE7).
T1 construct: expressed in transfected cells; crude lysate used as a cell-free assay
T1 sequence (Q9QXE7 166-527): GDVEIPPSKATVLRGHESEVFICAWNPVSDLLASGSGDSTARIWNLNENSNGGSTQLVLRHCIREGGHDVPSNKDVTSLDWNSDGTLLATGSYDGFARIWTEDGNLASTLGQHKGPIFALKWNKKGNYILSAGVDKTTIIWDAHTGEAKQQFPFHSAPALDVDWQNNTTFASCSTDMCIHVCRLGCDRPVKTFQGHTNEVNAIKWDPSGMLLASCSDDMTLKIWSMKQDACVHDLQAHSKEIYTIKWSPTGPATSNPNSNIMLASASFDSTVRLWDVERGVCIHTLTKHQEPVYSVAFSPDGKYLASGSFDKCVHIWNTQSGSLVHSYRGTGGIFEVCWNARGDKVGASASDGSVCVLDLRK
The assay is described as follows: MeCP2-TBL1 NanoLuc luciferase complementation assay (cell-free, extracts of transfected HEK293 cells).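 Note: each compound tested at 20 µM final concentration.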 It counts as binding, human. The method in brief: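 Cell-free split NanoLuc: lysate of HEK293 cells co-expressing the MeCP2 C-terminal half-SmBiT and TBL1 WD domain-LgBiT, mixed 1:1 with furimazine. After 30 min at room temperature, luminescence was plate-median normalized.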

[1] abbreviates: primary screen of the Asinex library, sheet "Sargen output Asinex library", one well per compound, Batch Ref. 1.
[2] abbreviates: primary screen of the Asinex library, sheet "Sargen output Asinex library", one well per compound.
Setting [3] is: primary screen of Asinex library, single well per compound.

`Cc1cc(C)nc(NCCC(=O)N2[C@H](Cc3ccccc3)C[C@]3(C)NC(=O)CCC[C@H]23)n1` [BDH_24639981]: the Inhibition percent under setting [1] was -1.66%.

On to `Clc1cccc(Cc2cncc(C3CCCN3Cc3ccnc(N4CCOCC4)n3)n2)c1` (centres unmarked) [BDH_27227771], for which, under setting [2], the Inhibition percent amounted to 3.31%.

Take `O=C1CCCC[C@]2(CN(C(=O)CCc3ccc(F)cc3)C[C@H]2c2ccccc2)N1` [BDH_32219010]: under setting [3], the Inhibition percent was -1.17.

`O=C(N1CCC2(CC1)COC(Cc1cccc(F)c1)C2)C1(c2cccc(F)c2)CCOCC1` (centres unmarked) [BDH_32247901]: the Inhibition percent under setting [2] was 0.54%.

For `C[C@]12C[C@@H](c3ccccc3)N(CC(=O)N3CC(=O)Nc4ccccc43)[C@H]1CCCCCN2` [BDH_32250993], the Inhibition percent under setting [3] is 1.88.

Take `CC(=O)N[C@@]12CN(CC(=O)Nc3cccc4c3CCCC4)CC[C@@H]1[C@@H](c1ccccc1)N(C)C2` [BDH_32251192]: the Inhibition percent under setting [2] is on record as 4.01%.

On to `O=C1OC2(CCN(C(=O)C3(c4ccccc4)CCCC3)C2)CN1Cc1ccc(F)cc1` (centres unmarked) [BDH_32289921], for which the Inhibition percent under setting [2] amounted to 0.62%.

As to `O=C(CN1CCc2ccccc2C1)N1CCCC2(CC1)CN(c1cccc(Cl)c1)C(=O)O2` (centres unmarked) [BDH_32295686], the Inhibition percent under setting [1] was 0.75%.

Turning to `O=C(c1ccc(Cc2ccc(F)cc2)nc1)N1CCCC2(CC1)CN(c1ccccc1)C(=O)O2` (centres unmarked) [BDH_32295955], the Inhibition percent under setting [3] was -2.84.

As for `O=C(c1ccc(Cc2cccc(F)c2)nc1)N1CCCC2(CC1)CN(c1ccccc1)C(=O)O2` (centres unmarked) [BDH_32296010], the Inhibition percent under setting [3] is on record as -0.22.

As for `COc1ccccc1Cc1ccc(C(=O)N2CCCC3(CC2)CN(c2ccccc2)C(=O)O3)cn1` (centres unmarked) [BDH_32296020], the Inhibition percent under setting [2] is -0.57%.

As to `O=C1COC2(CCCN(C(=O)c3cccc4cccnc34)CC2)CN1CCc1ccccc1` (centres unmarked) [BDH_32296359], under setting [2], the Inhibition percent is given as -0.70%.

Regarding `O=C(c1ccnc(Cc2cccc(F)c2)c1)N1CCC[C@]2(C[C@@H](Oc3ccc(F)cc3)CO2)C1` [BDH_32304392], the Inhibition percent under setting [2] was 5.07%.

Take `Cn1cc(CC(=O)N2C[C@@H](c3cccc(F)c3)[C@@]3(CCCCC(=O)N3)C2)c2ccccc21` [BDH_32306274]: under setting [1], the Inhibition percent amounted to 1.56%.

In the case of `CC(C)(NC(=O)c1ccccc1)C(=O)N1C[C@@H](c2ccc(F)cc2)[C@@]2(CCCC(=O)N2)C1` [BDH_32326628], under setting [2], the Inhibition percent is given as 0.18%.

Regarding `CC(C)(NC(=O)c1ccccc1)C(=O)N1C2CCC1CC(Cc1ccc3ccncc3c1)C2` (centres unmarked) [BDH_32326823], the Inhibition percent under setting [2] is -1.86%.

As for `CC(C)(NC(=O)Cc1ccccc1)C(=O)N1CCCC(Cc2cccc3ncccc23)C1` (centres unmarked) [BDH_32327552], under setting [3], the Inhibition percent is -4.87.

Take `CC(C)(NC(=O)Cc1ccccc1)C(=O)N1CCCC(Cc2cccn3ccnc23)CC1` (centres unmarked) [BDH_32327598]: under setting [3], the Inhibition percent is -2.43.

For `CC(C)(NC(=O)CCc1ccccc1)C(=O)N1CCC(Cc2ccc3ncccc3c2)CC1` [BDH_32328019], the Inhibition percent under setting [3] was -2.64.

As for `CN(C)c1cncc(C2CCCN2C(=O)C2(C)CCN(C(=O)c3cccc(F)c3)CC2)n1` (centres unmarked) [BDH_32329258], the Inhibition percent under setting [2] was -1.39%.

With `Cc1cccc(Oc2cncc(C3CCCN(C(=O)c4ccc(-n5cccn5)nc4)C3)n2)c1` (centres unmarked) [BDH_32330488], the Inhibition percent under setting [2] is given as 5.13%.

For the compound `O=C1OC2(CCCN(C(=O)c3ccc(-n4cccn4)nc3)CC2)CN1Cc1ccccc1` (centres unmarked) [BDH_32330719], the Inhibition percent under setting [2] is listed as -2.98%.

For `CC(=O)NC(F)(Cc1ccccc1)C(=O)N1CCC(Cc2cccc3cccnc23)CC1` (centres unmarked) [BDH_32336432], the Inhibition percent under setting [2] came to 15.90%.

For `COc1ccc(C2(C(=O)N3CCCCC3CCNC(=O)c3ccccc3)CCCC2)cc1` (centres unmarked) [BDH_32336950], the Inhibition percent under setting [1] was determined as 6.01%.

Take `O=C(c1ccccc1Cn1ccnc1)N1CCCC(c2cncc(Oc3ccccc3)n2)C1` (centres unmarked) [BDH_32338420]: the Inhibition percent under setting [1] came to 3.75%.

On to `Cc1nccn1Cc1ccccc1C(=O)N1CCCC(Cc2cccc3cccnc23)C1` (centres unmarked) [BDH_32339247], for which the Inhibition percent under setting [2] is -0.91%.

For `Cc1nccn1Cc1ccccc1C(=O)N1CCCC(Cc2cccc3cccnc23)CC1` (centres unmarked) [BDH_32339298], the Inhibition percent under setting [2] is recorded as 3.41%.

As for `Cc1nccn1Cc1ccccc1C(=O)N1CCCC(Cc2cccc3ccncc23)CC1` (centres unmarked) [BDH_32339307], the Inhibition percent under setting [3] is reported as -0.56.

Regarding `O=C(c1cccc(Cn2ccnc2)c1)N1CCCC(c2nccnc2Oc2ccccc2)C1` (centres unmarked) [BDH_32339912], the Inhibition percent under setting [2] was -0.06%.

Turning to `C[C@]12C[C@@H](Cc3ccccc3)N(C(=O)c3cccc(Cn4ccnc4)c3)[C@H]1CCCC(=O)N2` [BDH_32339936], the Inhibition percent under setting [3] was found to be 5.72.

On to `Cc1cccc(Oc2cncc(C3CCCN(C(=O)c4cccc(-n5cnnc5)c4)C3)n2)c1` (centres unmarked) [BDH_32340252], for which the Inhibition percent under setting [2] is -3.70%.

`O=C(c1cccc(-n2cnnc2)c1)N1CCOCC(Cc2cccc3occc23)C1` (centres unmarked) [BDH_32340409]: the Inhibition percent under setting [2] was -8.70%.

Consider `O=C(c1ccccc1Cn1cccn1)N1CCCC1c1cncc(Cc2cccc(F)c2)n1` (centres unmarked) [BDH_32340865], for which the Inhibition percent under setting [2] is 0.32%.

On to `O=C(N1CCC(Cc2ccc3ncccc3c2)CC1)C1(c2ccccc2)CCOCC1` [BDH_32341682], for which the Inhibition percent under setting [3] was 1.41.

On to `O=C(N1CCC(Cc2cccc3cccnc23)CC1)C1(c2ccccc2)CCOCC1` [BDH_32341683], for which the Inhibition percent under setting [3] stood at 6.68.

In the case of `COc1ccc(C(=O)N2CCCC(Cc3ccccn3)C2)cc1NCc1cccnc1` (centres unmarked) [BDH_32341951], the Inhibition percent under setting [3] was -2.98.

Regarding `O=C(c1ccccc1CN1CCOCC1)N1CCCC(Cc2cnc3ccccc3c2)CC1` (centres unmarked) [BDH_32342370], the Inhibition percent under setting [2] is listed as -1.09%.

In the case of `O=C(c1ccccc1CN1CCCC1)N1CCC2(CC1)COC(Cc1cccc(F)c1)C2` (centres unmarked) [BDH_32342523], under setting [2], the Inhibition percent amounted to 5.16%.

In the case of `Cc1ccc(C2(C(=O)N3CCC4(CC3)CC(Oc3ccccc3)CO4)CCOCC2)cc1` (centres unmarked) [BDH_32343765], the Inhibition percent under setting [3] amounted to 1.12.

As to `COc1ccc(C2(C(=O)N3CCC(Cc4ccc5ncccc5c4)CC3)CCOCC2)cc1` [BDH_32344075], the Inhibition percent under setting [2] is -2.33%.

On to `COc1ccc(C2(C(=O)N3CCC(Cc4cccc5cccnc45)CC3)CCOCC2)cc1` [BDH_32344076], for which the Inhibition percent under setting [2] is listed as 3.92%.

As for `CN(C)c1cncc(C2CCCN2C(=O)c2ccccc2OCCN2CCOCC2)n1` (centres unmarked) [BDH_32345043], the Inhibition percent under setting [3] is recorded as 1.00.

In the case of `CN1CCN(c2cc(C(=O)N3CCCCC3CCNC(=O)c3ccccc3)ccn2)CC1` (centres unmarked) [BDH_32345153], under setting [3], the Inhibition percent is on record as -1.36.

Regarding `c1ccc(COc2cccc(CN3CCOCC(Cc4ccc5nccn5n4)C3)c2)nc1` (centres unmarked) [BDH_32351403], under setting [2], the Inhibition percent is on record as -0.41%.

Regarding `O=C1CCCC[C@]2(CN(Cc3ccnc(N4CCOCC4)n3)C[C@H]2c2cccc(F)c2)N1` [BDH_32352634], the Inhibition percent under setting [2] is -4.25%.

Regarding `O=C1CCCC[C@]2(CN(Cc3ccnc(N4CCCCC4)n3)C[C@H]2c2ccccc2)N1` [BDH_32353018], under setting [3], the Inhibition percent is recorded as -0.90.

As to `O=C1CCCC[C@]2(CN(Cc3ccnc(N4CCCCC4)n3)C[C@H]2c2cccc(F)c2)N1` [BDH_32353019], the Inhibition percent under setting [1] is 1.21%.

On to `O=C(c1ccccc1OCCN1CCOCC1)N1CCCC(Cc2ccnc3ccccc23)CC1` (centres unmarked) [BDH_32353619], for which the Inhibition percent under setting [2] was -1.00%.

As to `O=C(c1ccccc1OCCN1CCOCC1)N1CCCC(Cc2cccc3cccnc23)CC1` (centres unmarked) [BDH_32353622], the Inhibition percent under setting [1] was 2.11%.

Consider `O=C(c1ccccc1CN1CCCC1)N1CCCC(c2cccc(Cc3ccccc3F)n2)C1` (centres unmarked) [BDH_32353816], for which, under setting [2], the Inhibition percent turned out to be 1.91%.

With `CC(C)(NC(=O)c1cccc(F)c1)C(=O)N1CCC(c2cccc(Cc3ccccc3)n2)CC1` [BDH_32354126], the Inhibition percent under setting [2] was -0.56%.

On to `Cc1nonc1COc1ccccc1C(=O)N1CCCC(Cc2ccnc3ccccc23)CC1` (centres unmarked) [BDH_32354216], for which, under setting [2], the Inhibition percent was -0.73%.

As for `Cc1nonc1COc1ccccc1C(=O)N1CCCC(Cc2cccc3cccnc23)CC1` (centres unmarked) [BDH_32354219], the Inhibition percent under setting [2] is 4.81%.

In the case of `Cc1noc(C)c1COc1cccc(C(=O)N2CCCC(Cc3cccc4cnccc34)CC2)c1` (centres unmarked) [BDH_32354458], the Inhibition percent under setting [1] was determined as 1.54%.

With `CN1CCC(Cc2cccc(F)c2)(C(=O)N2CCCC(Cc3cccc4ncccc34)C2)CC1` (centres unmarked) [BDH_32354496], under setting [2], the Inhibition percent is -4.55%.

For `CN1CCC(Cc2cccc(F)c2)(C(=O)N2CCC(Cc3cccc4cccnc34)CC2)CC1` [BDH_32354499], under setting [2], the Inhibition percent was -1.74%.

On to `CN1CCC(Cc2ccc(F)cc2)(C(=O)N2CCC(Cc3cccc4cccnc34)CC2)CC1` [BDH_32354505], for which, under setting [2], the Inhibition percent is given as -1.95%.

Consider `CC(C)(NC(=O)COc1ccccc1)C(=O)N1CCC(Cc2cccc3ncccc23)CC1` [BDH_32354908], for which, under setting [3], the Inhibition percent is recorded as -2.23.

For `Cc1nonc1COc1ccccc1C(=O)N1CCCC(Cc2ccc3ccncc3c2)CC1` (centres unmarked) [BDH_32355894], the Inhibition percent under setting [1] is 5.62%.

For the compound `Cc1ccc(Oc2ncccc2C(=O)N2CCC(c3cccc(Cc4ccccc4)n3)CC2)cn1` [BDH_32356013], under setting [1], the Inhibition percent amounted to 10.27%.

As for `O=C(CC1CCN(C(=O)C2(c3ccc(F)cc3)CCCC2)CC1)Nc1ccc2nccnc2c1` [BDH_32356175], the Inhibition percent under setting [2] was 0.45%.

Regarding `Cc1nonc1COc1ccccc1C(=O)N1C2CCC1CC(Cc1cnc3ccccc3c1)C2` (centres unmarked) [BDH_32356179], under setting [3], the Inhibition percent is on record as 3.35.
